Data taken from PMC9698340, “Discovery and SAR Study of Quinoxaline–Arylfuran Derivatives as a New Class of Antitumor Agents” (Pharmaceutics, 2022).

What was measured:
HeLa cells [1] = test: Cell cycle analysis, PI flow cytometry; format: cell-based, human; conditions: 24 h
Protocol: For cell cycle analysis, cells were collected after treatment, washed twice with cold PBS, fixed in 70% ethanol overnight, and stained with PI ([…], Sigma, Shanghai, China), plus 0.2 mg/mL of DNase-free RNase A (Qiagen) for 1 h at 4 °C.

HeLa cells [2] = test: Wound healing assay; format: cell-based, human; conditions: after 48 h, control 55.7%
Protocol: A total of 1 × 10^6 cells/well in the logarithmic growth phase were seeded in 6-well plates. When cell density reached 80 to 90%, a scratch was made in the monolayer in the middle of the well with a 200 μL pipette tip. The tip was kept perpendicular to the bottom of the well to obtain a straight gap. The detached cells were washed away and removed. The healing of the wound within the same scraped line was then observed and photographed at the indicated time points (0 h, 24 h, 48 h). Each experiment was repeated three times.

HeLa cells [3] = test: Hoechst-33342 staining; format: cell-based, human; conditions: 24 h, vs control
Protocol: HeLa cells (4 × 10^5 cells) were incubated in a 6-well plate for 12 h. The cells were then treated with QW12 at the indicated concentrations for 24 h. The cells were washed twice with PBS. The cells were then incubated with Hoechst-33342 (10 μg/mL) for 5 min at room temperature in darkness. After incubation, stained cells were observed under an inverted phase contrast microscope (OLYMPUS IX73, Tokyo, Japan).

recombinant STAT3 = recombinant STAT3 (Homo sapiens, UniProt P40763); test: Biolayer interferometry (BLI) assay; conditions: His-tagged STAT3 on SSA biosensors, QW12 5.2 to 333 μM, read-out: binding affinity (KD) to STAT3
Protocol: BLI assays were performed using the BLItz system (Sartorius). Biosensors were first equilibrated 10 min in 1X kinetic buffer (Sartorius) consisting of PBS with 0.02% Tween20 and 0.1% BSA. Subsequently, depending on the assay, STAT3 was loaded onto the corresponding biosensor at a concentration of 1.9 µg/µL, as indicated in the Sartorius biosensor datasheets, for an appropriate time interval. The concentration range for the associating protein was chosen, when possible, based on the KD value available from the literature or experimentally determined for all scenarios wherein KD values were unknown. The data recorded were analyzed by means of the BLItz software and MATLAB to extrapolate the kinetic parameters. All association and dissociation curves were fitted by a single exponential function. Each acquisition was repeated twice to confirm reproducibility.
To confirm whether QW12 is a direct STAT3 inhibitor, a BLI (biolayer interferometry) analysis was performed. Briefly, recombinant STAT3 with a His tag was immobilized on SSA biosensors, and the dissociation constants were determined by measuring the binding to serial dilutions of QW12 at concentrations ranging from 5.2 to 333 μM (Figure 9A).

HeLa cells [4] = test: Colony formation (plate-cloning) assay; format: cell-based, human; conditions: different concentrations, 24 h treatment
Protocol: HeLa cells were digested and seeded directly in 6-well plates (1 × 10^3 cells/well) for the colony-formation assay and cultured in the presence of 10% FBS and 1% penicillin/streptomycin at 37 °C with 5% CO2 for 12 h in confluent cell monolayers. The cells were then treated with QW12 at the indicated concentrations for 24 h. Two weeks later, the medium was removed, and the plates were washed with phosphate-buffered saline (PBS) three times. Cells were fixed with anhydrous ethanol for 30 min and then stained with Giemsa dye solution (Solarbio) for 30 min. The plates were dried with a blower to ensure high-quality images were obtained. Colonies were defined as >50 cells/colony.

L02 cells = test: CCK-8 cytotoxicity against normal hepatocytes L02; format: cell-based; conditions: Homo sapiens, 48 h, read-out: IC50 ± SD, L02 (human normal hepatocytes)
Protocol: Human lung carcinoma cell lines A549, human cervical cancer cell lines HeLa, human prostate cancer cell lines PC3, human colorectal carcinoma cell lines HCT116, and human liver cells L02 were purchased from the Chinese Academy of Sciences Shanghai Cell Bank (Shanghai, China). HeLa, A549, PC3, HCT116, and L02 cells were cultured in DMEM Dulbecco’s Modified Eagle Medium (DMEM; Gibco Inc., Gaithersburg, MD, USA). All cultures were provided with 10% fetal bovine serum (FBS; YHSM, Beijing, China), 100 IU/mL penicillin, and 100 μg/mL streptomycin, and cells were incubated at 37 °C in an atmosphere of 5% CO2.
Cell viability was determined using a CCK-8 kit (Apexbio, Houston, TX, USA). […] Subsequently, absorbance was assessed at 450 nm. Three duplicates were set in each group.
To further evaluate the anticancer effect of QW12, we evaluated its cytotoxicity against four human cancer cell lines: HeLa (Human cervical tumor), PC3 (Human prostate tumor), HCT116 (Human colorectal carcinomas), and A549 (Human lung carcinoma). […] Furthermore, the IC50 values of QW12 against PC3 and HCT116 were similar to those of nifuroxazide.

HeLa cells [5] = test: Intracellular ROS, DCFH-DA flow cytometry; format: cell-based, human; conditions: 10 and 40 μM, 6 h
Protocol: Intracellular reactive oxygen species (ROS) were measured by 2,7-dichlorofluorescein diacetate (DCFH-DA) staining. HeLa cells were treated with QW12 at 10 μM and 40 μM for 6 h. After indicated treatment, cells were harvested and washed with PBS. Cells were incubated with 10 μM DCFH-DA at 37 °C for 30 min. Cells were washed twice, resuspended with PBS, and subjected to flow cytometry.

Chain of recombinant STAT3 (P40763 whole entry, species assumed): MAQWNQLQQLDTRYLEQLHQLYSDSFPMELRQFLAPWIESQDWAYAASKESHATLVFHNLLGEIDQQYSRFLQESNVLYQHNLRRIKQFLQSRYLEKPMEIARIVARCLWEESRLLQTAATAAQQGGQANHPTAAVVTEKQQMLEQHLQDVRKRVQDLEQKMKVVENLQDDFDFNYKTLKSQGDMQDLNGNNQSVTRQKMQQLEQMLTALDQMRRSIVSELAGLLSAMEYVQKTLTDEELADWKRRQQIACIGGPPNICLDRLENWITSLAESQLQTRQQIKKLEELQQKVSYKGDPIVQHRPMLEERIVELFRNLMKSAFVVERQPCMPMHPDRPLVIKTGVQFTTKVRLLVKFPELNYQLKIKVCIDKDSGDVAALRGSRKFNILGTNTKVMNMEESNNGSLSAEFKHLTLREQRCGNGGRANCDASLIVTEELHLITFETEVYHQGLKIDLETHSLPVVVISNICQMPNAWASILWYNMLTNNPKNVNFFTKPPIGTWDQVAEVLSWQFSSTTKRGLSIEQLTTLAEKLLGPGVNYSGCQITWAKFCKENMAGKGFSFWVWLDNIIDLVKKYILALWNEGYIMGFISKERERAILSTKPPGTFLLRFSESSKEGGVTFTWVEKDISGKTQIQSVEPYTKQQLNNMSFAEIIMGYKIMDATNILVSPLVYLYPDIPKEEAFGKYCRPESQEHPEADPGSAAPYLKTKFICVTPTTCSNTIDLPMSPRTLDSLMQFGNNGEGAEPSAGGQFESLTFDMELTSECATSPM

COc1cc(-c2ccc(/C=N/NC(=O)c3ccc(O)cc3)o2)c(OC)cc1-c1ccc2nccnc2c1 [QW12, (E)-N’-((5-(2,5-dimethoxy-4-(quinoxalin-6-yl)phenyl)furan-2-yl)methylene)-4-hydroxybenzohydrazide]
HeLa cell population in the S phase (HeLa cells [1]; 10 μM): 23.19%
HeLa cell population in the S phase (HeLa cells [1]; 40 μM): 51.88%
percentage of cells in phases G0/G1 and G2/M (HeLa cells [1]; 10 and 40 μM): decreased significantly
rate of scratch closure (HeLa cells [2]; 10 μM): 28.0%
rate of scratch closure (HeLa cells [2]; 40 μM): 17.2%
nuclear morphology (Hoechst staining) (HeLa cells [3]): significant apoptotic morphological characteristics were observed
Kd (recombinant STAT3): 67.3 µM
effect on proliferation in plate-cloning assay (HeLa cells [4]): proliferated at a significantly lower rate than the control
IC50 (L02 cells): > 50 µM
effect on ROS accumulation (HeLa cells [5]): stimulates ROS accumulation in a dose-dependent manner
